From patent US10251842B1, “Nanocapsule containing a bioactive compound, and a method of reducing toxicity resulting from cancer therapy” (King Abdulaziz University, priority 2017, dated 2019)
Marks after values point to notes of the source that are not given here.

How the values were obtained:
[1] = test system: SUIT2 pancreatic tumor; experiment: CAM pancreatic cancer cell implant model (tumor growth, tumor angiogenesis, IVIS bioluminescence); assay type: in vivo, chick embryo; settings: for suppression of vascular pattern / tumor angiogenesis of pancreatic tumor: 1 μg/CAM, 3 days of incubation, nanocapsules versus unencapsulated; for viable pancreatic cancer cells, bioluminescence (IVIS): SUIT2-luc tumors, ex vivo imaging
Protocol: To determine the relative potency of different nanocapsules and unencapsulated bioactive compounds, they were tested in the CAM pancreatic cancer cell implant model of tumor growth and tumor angiogenesis by modifying published protocols (Marcinkiewicz C. Weinreb P H, Calvete J J, Kisiel D G, Mousa S A, Tuszynski G P, Lobb R R. A Potent Selective Inhibitor of alpha1beta1 Integrin in Vitro and Angiogenesis in Vivo. Cancer Res. 2003; 63(9): 2020-2023; and Deryugina E I and Quigley J P: Chick Embryo Chorioallantoic Membrane Models to Quantify Angiogenesis induced by inflammatory and tumor cells or purified effector molecules. Methods in Enzymol. 2008; 444: 21-41, each incorporated herein by reference in their entirety).
A 7-day old chick embryo were purchased from Spafas, Inc. (Preston, Conn.) and incubated at 37° C. with 55% relative humidity. A hypodermic needle was used to make a small hole in the shell at the air sac and a second hole will be made on the broadside of the egg, directly over an avascular portion of the embryonic membrane that was identified by candling. A false air sac was created beneath the second hole by the application of negative pressure at the first hole, causing the CAM to separate from the shell. […] Treatment effects (Tumor growth, and tumor angiogenesis were determined 7 days after tumor cell implantation. For these studies, Matrigel® (BD Bioscience, San Jose Calif.) were thawed overnight at 4° C. and placed on ice. Cells in exponential growth phase were harvested using 0.25% trypsin-EDTA washed and suspended in medium. Only suspensions of single cells with a viability exceeding 95% were used. Approximately 1×10^6 cells in 30 μL of medium mixed with same volume (30 μL) of Matrigel was implanted on the chorioallantoic membrane.
After incubation at 37° C. with 55% relative humidity for 3 days, the CAM tissue directly beneath each filter disk was resected from control and treated CAM samples. […] Digital images of CAM sections exposed to filters were collected, using a 3-CCD color video c vera system (Toshiba America, New York, N.Y.), and analyzed with Image-Pro software (Media Cybernetics, Silver Spring, Md.). The numbers of vessel branch points contained in a circular region equal to the area of each filter disk were counted. One image was counted in each CAM preparation, and findings from 6-8 CAM preparations group were analyzed for each treatment condition.
Results presented as mean tumor weight (mg) per treatment group and tumor hemoglobin (mg/dl)±SD, n=8 eggs per group. The effect of these treatments was determined after 7 days of implantation. […]

[2] = test system: SUIT2 pancreatic cancer cells; experiment: MTT cell viability/proliferation assay, SUIT2; assay type: cell-based, human; settings: SUIT2, 24 hours, 1 μg/ml
Protocol: SUIT2-luc cells were grown in DMEM supplemented with 5% fetal bovine serum, 1% penicillin, and 1% streptomycin. Cells were cultured at 37° C. to sub-confluence and treated with 0.25% w/v typsin/EDTA to affect cell release from culture flask. After washing cells with culture medium, cells were suspended in DMEM (free of phenol red and fetal bovine serum) and counted.
SUIT2 cells were subjected to treatment with unencapsulated DIM, unencapsulated EA, combinations thereof, and the nanocapsules containing DIM and/or EA at concentrations of the bioactive compounds ranging from 0.1 to 10 μg. Briefly, cells were seeded at a density of 10^4 cells/well in 96-well plates, and then incubated with compounds and nanocapsules for 24 hours. Cell viability/proliferation was determined by MTT assay, as per the manufacturer's protocol. MTT solution was added to each well, and cells were further incubated for 4 hours at 37° C. The formed dye was solubilized by the addition of 50 μL of DMSO and incubated for 10 min at 37° C. The optical density of each well was determined using an ELISA plate reader at an activation wavelength of 570 nm and reference wavelength of 650 nm. The percentage of viable cells was determined by comparison to untreated control cells.

[3] = test system: cisplatin-induced NF-κB; experiment: NF-κB luciferase assay in HeLa cells stimulated with cisplatin; assay type: cell-based; settings: Homo sapiens, 3 μM (3 μM total for combinations), n = 3, read-out: Mean % inhibition of cisplatin-induced NFkB ± SD
Protocol: The induction of NF-κB by cisplatin and other chemotherapies is known to be associated with neuropathy and nephrotoxicity. In this example, the effect of unencapsulated DIM and EA, and the nanocapsules cisplatin-induced NF-κB was studied using HeLa cells which expressed NF-κB.
HeLa cells were seeded at 1×10^5 cells in 2 ml/well in 6-well plates at 37° C. for 24 hours. The doses of the test compounds were based on preliminary studies. Test compounds (nanocapsules containing DIM, nanocapsules containing E&, nanocapsules containing DIM and EA, unencapsulated DIM, and unencapsulated EA) were added at concentrations ranging from 1-3 μM to the plate with fresh medium including 0.5% FBS and incubated at 37° C. in 5% CO2 for an additional 3 hours. For induction of transcription and to test the biological response of the promoters, the cell line stimulated with cisplatin (Sigma) and the cells were incubated at 37° C. in 5% CO2 for 24 hours. The luciferase activity determined by using the luciferase assay system (Promega, Madison, Wis., US). […] Luminescence was immediately measured using Glomax 20/20 Illuminometer (Promega). Luciferase expression of each test compound was quantified as the relative light units (RLU), normalized to readings of control wells, and expressed as relative NF-κB reporter activity. The mean % inhibitory effects of the compounds were calculated.

[4] = Plasma cardiac troponin in MCF-7 tumor bearing mice; assay type: in vivo
[5] = test system: breast cancer MCF-7 tumor; experiment: Subcutaneous xenograft in nude mice, breast cancer MCF-7; assay type: in vivo; settings: SC, mean ± SEM, n = 4-5 animals/group
Protocol: Immunodeficient, female NCr nude mice aged 5-6 weeks and weighing between […] were maintained under specific pathogen-free conditions and housed under controlled conditions of temperature (20-24° C.) and humidity (60-70%) and 12 h light/dark cycle with ad libitum access to water and food. Mice were allowed to acclimatize for 5 days prior to the start of study.
Xenografts containing 1×10^6 to 2×10^6 tumor cells (e.g., pancreatic SUIT2, colon HT-29, glioblastoma U87, or breast cancer MCF-7 cells) were implanted subcutaneously in a mouse flank. There were 2 grafts mouse and there were 4 mice in each group (control, treatments using vehicle). DMSO or ethyl acetate used during the preparation of nanocapsules was totally removed by dialysis and the vehicle used to disperse the DIM or EA and their nanocapsule forms was phosphate buffered saline (PBS).
Tumors were excised at the end of the study from all treatment arms, which included control; DIM; EA; nanocapsule containing DIM; nanocapsule containing EA; nanocapsule containing DIM acid EA; nanocapsule containing cisplatin; nanocapsule containing doxorubicin; nanocapsule containing cisplatin, DIM, and EA; and nanocapsule containing doxorubicin, DIM, and EA. Tumor growth was measured.

plasma cardiac troponin ([4]; MCF-7 tumor bearing mice)	Troponin (% from control) ([4]; mice, SC)	SMILES	suppression of vascular pattern / tumor angiogenesis of pancreatic tumor [1]	viable pancreatic cancer cells, bioluminescence (IVIS) [1]	effect on cell viability/proliferation [2]	inhibition at 3 µM [3]	Mean Breast (MCF-7) Tumor Growth [5]
		c1ccc2c(Cc3c[nH]c4ccccc34)c[nH]c2c1 [DIM, 3,3′-diindolylmethane]	mild suppression	statistically significant reduction	did not show any significant effect	20 ± 5%	
large increase	+50-70%**	COc1cccc2c1C(=O)c1c(O)c3c(c(O)c1C2=O)C[C@@](O)(C(=O)CO)C[C@@H]3O[C@H]1C[C@H](N)[C@H](O)[C@H](C)O1 [DOX, doxorubicin]					0.70 ± 0.15 g
		O=c1oc2c(O)c(O)cc3c(=O)oc4c(O)c(O)cc1c4c23 [Ellagic acid, ellagic acid]	mild suppression	statistically significant reduction	did not show any significant effect	26 ± 4%	
